A short description of experiment [1]: Luminescence-based cell-based high throughput dose response assay to identify activators of the DAF-12 from the parasite S. stercoralis (ssDAF-12). The format is functional.
The target of experiment [2] is T1, Oxysterols receptor LXR-beta (Homo sapiens, UniProt P55055).
T1 sequence (P55055 whole entry): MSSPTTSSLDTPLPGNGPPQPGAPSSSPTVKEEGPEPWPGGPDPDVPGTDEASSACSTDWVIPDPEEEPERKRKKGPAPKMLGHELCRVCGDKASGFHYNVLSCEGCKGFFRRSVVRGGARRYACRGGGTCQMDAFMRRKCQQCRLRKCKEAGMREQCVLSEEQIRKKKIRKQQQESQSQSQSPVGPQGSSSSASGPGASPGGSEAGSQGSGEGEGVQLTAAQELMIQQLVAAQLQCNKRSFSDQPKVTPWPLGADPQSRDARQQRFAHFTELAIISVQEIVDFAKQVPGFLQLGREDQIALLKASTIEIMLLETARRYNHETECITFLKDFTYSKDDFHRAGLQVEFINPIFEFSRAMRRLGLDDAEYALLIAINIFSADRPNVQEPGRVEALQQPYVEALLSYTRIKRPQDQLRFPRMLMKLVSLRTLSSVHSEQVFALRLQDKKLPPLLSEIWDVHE
In words: LXR agonists, Gal4 luciferase reporter, dose response, counter-screen for ssDAF-12 agonist project, cell-based, luminescence, HEK293, S. stercoralis campaign (AID 720737). The format is functional. As to conditions: read-out: IC50 (the source's name). On the technique in general: In a reporter assay the amount or activity of a reporter protein is the signal.

Experiment [3] in a line: P. falciparum Dd2 blood-stage growth inhibition, dose response, SYBR Green fluorescence, erythrocytes, dry powder, set 2 (AID 1159574). The format is functional, cell-based.
In experiment [4] the target is RNA-editing ligase 1, mitochondrial (Trypanosoma brucei brucei, UniProt P86926). In words: TbREL1 ligase inhibitors, dose response, biochemical, fluorescence, Trypanosoma brucei (AID 1117295). It is filed as functional.
Chain of RNA-editing ligase 1, mitochondrial (P86926 whole entry): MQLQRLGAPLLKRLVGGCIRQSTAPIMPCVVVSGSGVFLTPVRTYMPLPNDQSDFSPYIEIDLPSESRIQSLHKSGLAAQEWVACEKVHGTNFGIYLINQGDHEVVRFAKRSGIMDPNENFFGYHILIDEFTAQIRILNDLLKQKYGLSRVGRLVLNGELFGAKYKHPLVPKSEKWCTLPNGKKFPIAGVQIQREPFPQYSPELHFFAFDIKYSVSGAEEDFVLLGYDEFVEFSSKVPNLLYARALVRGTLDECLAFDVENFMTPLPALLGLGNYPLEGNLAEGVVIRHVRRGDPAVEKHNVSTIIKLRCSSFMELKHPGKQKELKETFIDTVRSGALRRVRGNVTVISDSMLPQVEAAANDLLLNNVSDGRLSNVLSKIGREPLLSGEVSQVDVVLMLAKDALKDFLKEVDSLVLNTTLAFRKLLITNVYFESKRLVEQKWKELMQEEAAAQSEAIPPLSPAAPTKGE
Experiment [5] in a line: P. falciparum Dd2 growth inhibitors, dose response, SYBR Green, dry powder samples, set 9 (AID 1159568). It is filed as functional, cell-based.
Experiment [6] in a line: HepG2 cell cytotoxicity, dose response, cytotoxicity control, plate reader, dry powder samples (AID 1159569).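 Note: inhibitor potency with signal falling toward the positive control level.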 It is filed as functional, cell-based.
The nature of experiment [7]: P. falciparum ATP4 D1247Y mutant growth inhibitors, dose response, NITD609-resistant line, SYBR Green, dry powder (AID 1159571).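 Note: parasites synchronized at ring stage by sorbitol before testing.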 It is filed as functional, cell-based.
Experiment [8] in a line: P. falciparum Dd2 growth inhibitors, dose response, SYBR Green, dry powder samples (AID 1159566).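 Note: potency for growth inhibition with lower SYBR green DNA signal.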 The format is functional, cell-based.
Experiment [9] is described as follows: P. falciparum 3D7-ScDHODH growth inhibitors, dose response, SYBR Green, dry powder samples (AID 1159570).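 Note: parasite growth measured after 72 hours of compound exposure.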 The format is functional, cell-based.
Experiment [10] is described as follows: P. falciparum Dd2 growth inhibitors, dose response, SYBR Green, cherry-picked samples (AID 1159567). The format is functional, cell-based.
Experiment [11] is described as follows: TB: CFU replicating Measured in Microorganism System Using Imaging - 7108-05_Inhibitor_Dose_DryPowder_Activity_Set2. It is filed as functional.
A short description of experiment [12]: HCT116 cell viability decrease, GSK3B pretreatment – CellTiter-Glo, IC50, dose response (AID 1117339). The settings on record: HCT-116. The format is functional. For orientation: ATP-based viability assays read luminescence as a measure of living cells.
Experiment [13] in a line: microbe, parasite or virus in culture. As to conditions: Mycobacterium tuberculosis. It is filed as functional.
A short description of experiment [14]: half-maximal inhibitory concentration for glucagon-like peptide-1 release, STC-1 cell line, dose-response (AID 1117345). The format is functional, cell-based.
A short description of experiment [15]: cytotoxicity toward Colo320 cells – cell-based, CellTiter-Glo luminescence, IC50, dose response (AID 1117334). The format is functional. The settings on record: COLO 320.
For experiment [16], the target named is Heat shock protein HSP 90-alpha (Homo sapiens, UniProt P07900). It is filed as functional, organism-based.
In experiment [17] the target is T2, Ubiquitin-conjugating enzyme E2 N (Homo sapiens, UniProt P61088).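 Note: Dose-response confirmation in a TR-FRET assay detecting UBC13-driven polyubiquitin chain formation, inhibition measured.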
T2 sequence (P61088 whole entry): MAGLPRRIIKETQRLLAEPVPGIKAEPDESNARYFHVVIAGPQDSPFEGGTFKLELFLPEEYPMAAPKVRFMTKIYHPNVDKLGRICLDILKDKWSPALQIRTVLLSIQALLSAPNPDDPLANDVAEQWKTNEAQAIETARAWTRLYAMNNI
It is filed as functional.

A short description of experiment [18]: Concentration-dependent survival of SW480 colon cancer line, luminescence detection with CellTiter-Glo, half-maximal inhibitory concentration (AID 1117338). It is filed as functional.
Experiment [19] can be described thus: cytotoxicity toward HT-29 cells – cell-based, CellTiter-Glo luminescence, IC50, dose response (AID 1117330). It is filed as functional.
Experiment [20] is described as follows: RKO cell viability reduction, dose response, CellTiter-Glo luminescence (AID 1117322). It is filed as functional.
The nature of experiment [21]: CellTiter-Glo luminescent dose response of DLD-1 viability loss (AID 1117352). It is filed as functional.
Experiment [22] in a line: Glucagon-like peptide 1 release potency, NCI-H716 cell line, dose-response, half-maximal inhibitory concentration (AID 1117344). The format is functional, cell-based.
Experiment [23] can be described thus: cytotoxicity toward HCT116 cells – cell-based, CellTiter-Glo luminescence, IC50, dose response (AID 1117332). It is filed as functional. As to conditions: HCT-116.
The nature of experiment [24]: SNU-C1 cell viability reduction, dose response, CellTiter-Glo luminescence (AID 1117323). The format is functional, cell-based.
Experiment [25] is described as follows: HeLa 2N DNA content increase, dose response, cell-based, IC50 (AID 1117349). It is filed as functional.
Experiment [26] can be described thus: HeLa 4N DNA content increase, dose response, cell-based, IC50 (AID 1117351). It is filed as functional.

Calls of active or inactive are those of the source.

As a reminder, the IC50 is the concentration that inhibits the measured activity by half. Consider `O=C(Cc1ccccc1[N+](=O)[O-])NCCc1ccc(F)cc1`, for which the IC50 in [1] is > 67600 nM (inactive). Also, in experiment [2], the EC50 is > 67600 nM (inactive).

The term AC50 denotes the concentration at which the activity in the assay is half-maximal. With `COc1ccc(S(=O)(=O)N(C)C[C@H]2OCc3ccccc3-c3c(n(C)c4ccccc34)C(=O)N([C@H](C)CO)C[C@H]2C)cc1`, in experiment [3], the AC50 was 6220 nM (active).

Turning to `COC(=O)C1=C(C)N(Cc2ccccc2C(F)(F)F)C(NCc2ccc(OC)cc2)=NC1c1cccc(Cl)c1` (stereo unspecified), the IC50 in [4] was > 96600 nM (inactive).

Turning to `Cc1ccc(S(=O)(=O)N(C)C[C@@H]2Oc3cc(C#CC4CCCC4)ccc3S(=O)(=O)N([C@@H](C)CO)C[C@H]2C)cc1`, the concentration at half-maximal activity (AC50) in [5] is 1330 nM (active).

Regarding `COc1ccc(C#Cc2ccc([C@@H]3[C@@H](CO)N4CCCCN(C(=O)Nc5ccccc5F)C[C@H]34)cc2)cc1`, the AC50 in experiment [6] is 15700 nM (active); in experiment [7], 1450 nM (active); in experiment [8], 800 nM (active); in experiment [9] it was 1370 nM (active); in [10], 1890 nM (active).

Regarding `Cc1cccc(C(=O)Nc2nc3ccccc3n2C)c1`, in experiment [11], the AbsAC90 was 360.23 µM.

Take `Clc1ccc(CCC(Cn2ccnc2)Sc2c(Cl)cccc2Cl)cc1` (stereo unspecified) [BUTOCONAZOLE NITRATE]: the half-maximal inhibitory concentration (IC50) in experiment [12] is 841 nM (active); in experiment [14] it was 7000 nM (inactive); in [15] it was 221 nM (active); in experiment [17], > 20000 nM (inactive); in experiment [18] it was 1690 nM (active); in experiment [19] it was 3010 nM (active). Also, the half-maximal inhibitory concentration (IC50) in experiment [20] was 2300 nM (active); in experiment [21], 1840 nM (active); in experiment [22], 16000 nM (inactive); in experiment [23], 2060 nM (active); in experiment [24], 996 nM (active). In addition, in experiment [13], the CC50 was 37600 nM (active). Besides, in experiment [16], the AC50 was < 195 nM (active).

For the compound `COc1cc(-c2ccc(=O)[nH]n2)ccc1OC(F)F` [ZARDAVERINE], the IC50 in experiment [25] and in [26] was > 10000 nM (inactive) in each case.

The values are drawn from ChEMBL document CHEMBL1201862, “PubChem BioAssay data set” (2004).
